According to patent US8674109B2, “Pesticidal compositions” (Dow AgroSciences, LLC., priority 2009, dated 2014):

Assays:
Format in all cases: in vivo
[1] = system: green peach aphid (Myzus persicae); experiment: Insecticidal test for green peach aphid in foliar spray assay on cabbage seedlings
Summary of the method: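 Cabbage seedlings carrying 20-50 aphids (adults and nymphs) were sprayed to runoff with compound at 200 ppm in acetone/methanol diluted in 0.025% Tween 20, with four pots per treatment. After three days at about 25 °C and 40% RH, live aphids were counted. Percent control was Abbott-corrected against solvent-check plants.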

[2] = system: corn earworm (CEW; Helicoverpa zea: Lepidoptera); experiment: Insecticidal test for corn earworm, 128-well diet tray assay
Summary of the method: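 Second-instar larvae, three to five per well, placed on artificial diet treated with 50 μg/cm^2 compound applied in 90:10 acetone-water and dried. Held six days at 25° C., 14:10 light-dark. Percent mortality scored per well and averaged over eight wells.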

[3] = system: beet armyworm (BAW; Spodoptera exigua: Lepidoptera); experiment: Insecticidal test for beet armyworm, 128-well diet tray assay
Summary of the method: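 Three to five second-instar larvae per well fed on artificial diet surface-treated with 50 μg/cm^2 compound (applied in 90:10 acetone-water, dried). Trays were held six days at 25 °C, 14:10 light-dark. Percent mortality was averaged across eight wells.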

| Compound | % Mortality GPA 200 ppm [1] | % Mortality CEW 50 μg/cm^2 [2] | % Mortality BAW 50 μg/cm^2 [3] |
| --- | --- | --- | --- |
| CCCCC(OC(=O)Nc1ccc(-c2ncn(-c3ccc(OC(F)(F)F)cc3)n2)cc1)c1ccccc1 (stereo not drawn) [Compound 71] | B (Less than 80) | A (50-100) | A (50-100) |
| O=C(Nc1ccc(-c2ncn(-c3ccc(OC(F)(F)F)cc3)n2)cc1)Oc1cccc(-c2ccccc2)c1 [Compound 129] | B (Less than 80) | A (50-100) | A (50-100) |
| CC(C)(C)OC(=O)Nc1ccc(-c2ncn(-c3ccc(OC(F)(F)F)cc3)n2)cc1 [Compound 25] | B (Less than 80) | A (50-100) | A (50-100) |
| CC(C)OC(=O)Nc1ccc(-c2ncn(-c3ccc(OC(F)(F)F)cc3)n2)cc1 [Compound 87] | B (Less than 80) | B (Less than 50) | A (50-100) |
